Assay results taken from patent publication US4680382A, “Analogues of actinomycin D” (priority 1986, dated 1987).

Columns and labels:
[1] = target: T1, NADPH cytochrome P-450 reductase (rat liver microsomes) (Rattus norvegicus, UniProt P00388); assay: Stimulation of NADPH oxidation in rat hepatic microsomal incubations; conditions: for NADPH oxid: 340 nm, 37° C., phenobarbital induced microsomes, mean ± standard error of triplicate, basal 9.11 ± 0.30; for percentage stimulation of NADPH oxidation over basal rate: (drug-stimulated rate - basal rate)/basal rate × 100
T1 sequence (P00388 1-678): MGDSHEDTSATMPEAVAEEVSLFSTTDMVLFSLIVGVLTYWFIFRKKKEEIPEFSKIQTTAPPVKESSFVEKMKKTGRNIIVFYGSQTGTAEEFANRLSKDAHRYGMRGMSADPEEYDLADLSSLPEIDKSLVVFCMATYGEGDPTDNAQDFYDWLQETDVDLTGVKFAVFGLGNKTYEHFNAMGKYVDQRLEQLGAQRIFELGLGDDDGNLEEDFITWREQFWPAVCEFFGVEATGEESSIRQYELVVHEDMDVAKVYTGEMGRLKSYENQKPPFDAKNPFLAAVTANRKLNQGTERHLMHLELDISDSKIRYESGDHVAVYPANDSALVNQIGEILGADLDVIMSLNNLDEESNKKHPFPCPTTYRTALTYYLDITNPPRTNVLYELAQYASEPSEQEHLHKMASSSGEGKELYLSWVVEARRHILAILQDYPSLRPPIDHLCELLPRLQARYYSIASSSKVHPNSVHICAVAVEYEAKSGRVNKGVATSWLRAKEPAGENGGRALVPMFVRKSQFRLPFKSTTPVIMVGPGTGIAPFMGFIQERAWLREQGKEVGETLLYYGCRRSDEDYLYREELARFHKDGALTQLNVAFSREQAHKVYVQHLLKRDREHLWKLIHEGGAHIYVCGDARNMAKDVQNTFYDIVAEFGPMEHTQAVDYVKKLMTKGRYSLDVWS

rat hepatic microsomes = assay: Stimulation of adrenochrome formation (superoxide generation) in rat hepatic microsomal incubations; conditions: no SOD; for adrenochrome formation: 480 nm, 37° C., no more than 100 μM drug, basal 2.11 ± 0.11
liver microsomes = assay: EPR detection of free-radical intermediates with liver microsomes and NADPH (anaerobic); type: biochemical; conditions: NADPH, potassium phosphate buffer
Method: No free-radical intermediates were detected in the absence of enzyme or substrates.
Melting points are determined on a Thomas-Hoover melting point apparatus at a heating rate of 2° C./min. Thin-layer chromatography was performed on silica gel plates (Brinkmann Instrument Inc.). Solvent systems were (A) EtOAc-acetone (4:1), (B) CHCl3 -MeOH (9:1) and (C) Cifferri, the organic phase of the mixture EtOAc-MeOH-H2 O (20:1:20). High-performance liquid chromatography was carried out on a Varian Model 5020 gradient liquid chromatograph equipped with a CD-111L chromatography data system and fitted with a Varian reversed-phase C18 column with the following solvent systems: I, CH3 CN-5 mM NH4 OAc buffer, pH 6.4 (68:32 isocratic), flow rate 1.5 mL/min; II, 65-95% water-methanol gradient for 70 min, 1 mL/min; III, 10-90% H2 O-MeOH gradient for 120 min, 1 mL/min, with UV-visible variable- and fixed-wavelength dual detectors at 254, 440, 470 and 520 nm. IR spectra were obtained on a Perkin-Elmer Model 237 Infra Cord with KBr micropellets or in chloroform solutions. UV-visible spectra were obtained on a Gilford 250 spectrophorometer, which, with the addition of a base-line reference compensator (Analog Multiplexer 5053) and thermoprogrammer, auto four cell programmer and thermoelectric cell holder 2577, were used to obtain thermal denaturation curves. Specific rotation values were determined in chloroform solutions with a Cary 60 spectropolarimeter. NMR spectra were obtained in a JEOL FQ-90 MHz spectrometer equipped with Fourier transform. EPR spectra analyses were recorded in a Varian E-9 EPR spectrometer. All elemental analyses were within ±0.4%.

P388/S = assay: In vivo activity against P388/S (adriamycin sensitive) leukemia, Table VII; design: species or system BDF1 mice; conditions: for P388/S % ILS / P388/S tumor-free survivors/total on day 60: at optimal dose; for P388/S optimal dose: ip, days 1, 5 and 9
Method: (§1) ^a Male BDF1 mice inoculated ip: 10^6 cells inoculum, day 0.
(§2) Drugs administered in 10% dimethyl sulfoxidesaline on days 1, 5 and 9. %
(§3) ILS = percent increase in life span. Fractions in parentheses = tumorfree
(§4) survivors/total on day 60. P388/S (adriamycin sensitive) and P388/ADR
(§5) (adriamycin resistant) tumors were evaluated in the same experiment with […]

P388/ADR = assay: In vivo activity against P388/adriamycin-resistant leukemia; design: species or system BDF1 mice; conditions: for P388/ADR optimal dose: ip, days 1, 5 and 9
Method: as §1, §2, §3, §4, §5

| Structure (SMILES) | NADPH oxid [1] | percentage stimulation of NADPH oxidation over basal rate [1] | adrenochrome formation (rat hepatic microsomes) | percentage stimulation of adrenochrome formation over basal rate (rat hepatic microsomes) | free-radical intermediate detected by EPR (liver microsomes) | P388/S % ILS (P388/S) | P388/S tumor-free survivors/total on day 60 (P388/S) | P388/S optimal dose (P388/S) | P388/ADR % ILS (P388/ADR; at optimal dose) | P388/ADR optimal dose (P388/ADR) | P388/ADR tumor-free survivors/total on day 60 (P388/ADR; at optimal dose) |
| --- | --- | --- | --- | --- | --- | --- | --- | --- | --- | --- | --- |
| CCN(CC)C(=O)c1c2nc3c(C(=O)N(CC)CC)ccc(C)c3oc-2c(C)c(=O)c1N [1b] | 8.9 ± 0.90 nmol min^-1 (mg of protein)^-1 | -2% | 2.13 ± 0.19 nmol min^-1 (mg of protein)^-1 | +1% | – | – | – | – | – | – | – |
| CCN(CC)C(=O)c1c2nc3c(C(=O)N(CC)CC)cc(O)c(C)c3oc-2c(C)c(=O)c1N [2b] | 8.9 ± 0.90 nmol min^-1 (mg of protein)^-1 | -2% | 2.13 ± 0.19 nmol min^-1 (mg of protein)^-1 | +1% | – | – | – | – | – | – | – |
| CCN(CC)C(=O)c1c2nc3c(C(=O)N(CC)CC)c(N)c(O)c(C)c3oc-2c(C)c(=O)c1N [4b, 2,8-Diamino-1,9-bis(diethylcarbamoyl)-7-hydroxy-4,6-dimethyl-3-H-phenoxazine-3-one] | 8.9 ± 0.90 nmol min^-1 (mg of protein)^-1 | -2% | 2.13 ± 0.19 nmol min^-1 (mg of protein)^-1 | +1% | no free-radical intermediates were detectable | – | – | – | – | – | – |
| CCN(CC)C(=O)c1c2nc3c(C(=O)N(CC)CC)c4nc(C)oc4c(C)c3oc-2c(C)c(=O)c1N [7b] | 8.9 ± 0.90 nmol min^-1 (mg of protein)^-1 | -2% | 2.13 ± 0.19 nmol min^-1 (mg of protein)^-1 | +1% | no free-radical intermediates were detectable | – | – | – | – | – | – |
| CCN(CC)C(=O)c1cc(=O)c(C)c2oc3c(C)c4oc(C)nc4c(C(=O)N(CC)CC)c3nc1-2 [9b] | 8.9 ± 0.90 nmol min^-1 (mg of protein)^-1 | -2% | 2.13 ± 0.19 nmol min^-1 (mg of protein)^-1 | +1% | – | – | – | – | – | – | – |
| COc1cccc2c1C(=O)c1c(O)c3c(c(O)c1C2=O)C[C@@](O)(C(=O)CO)C[C@@H]3O[C@H]1C[C@H](N)[C@H](O)[C@H](C)O1 [adriamycin, reference compound] | – | – | – | – | – | 97% | 1/8 | 3.0 mg/kg | 33% | 3.5 mg/kg | – |
| CO[C@@]12[C@H](COC(N)=O)C3=C(C(=O)C(C)=C(N)C3=O)N1C[C@@H]1N[C@@H]12 [mitomycin C, reference compound] | – | – | – | – | – | 136% | 1/8 | 3.0 mg/kg | 400% | 3.0 mg/kg | 5/8 |
